Source: patent publication US20120029071A1, “COMPOSITIONS AND METHODS FOR TREATING OR PREVENTING RADIATION INJURY” (THE JOHNS HOPKINS UNIVERSITY, priority 2008, published 2012)
Entries after “also recorded” stand apart in the source; their conditions may differ.

Legend:
[1] = tested on: Nrf2−/− mice; assay: TBI induced mortality in Nrf2-/- mice after CDDO-Me treatment; type: in vivo; conditions: treated 1 hour post-TBI
Experimental: (§1) FIG. 2 includes three graphs, which provide proof of concept studies with Nrf2 activator, showing quantitation of TBI induced Mortality in Nrf2−/− mice and Nrf2+/+ mice after CDDO-me (small molecule Nrf2 activator) or vehicle treatment. One hour and 24 hours after TBI mice (n=10/gp) mice were treated with CDDO-Me. Survival was monitored for 30 days.
(§2) To determine if pharmacological activation of Nrf2 improves survival following TBI, we treated Nrf2+/+ and Nrf2−/− with the small molecule, CDDO-Me, a potent Nrf2 activator 1 hour and 24 hours after TBI.

[2] = tested on: mice; assay: TBI induced gastrointestinal (GI) injury: villi morphology and crypt cell proliferation (BrdU); type: in vivo; conditions: treatment post 1 h TBI, day 9 post TBI, vs vehicle; for mucosal injury (length of villi): histopathology
Experimental: FIGS. 3A-3D show TBI induced GI injury in Nrf2+/+ and Nrf2−/− mice after CDDO-me or vehicle treatment. One hour after TBI […] mice (n=10/gp) mice were treated with CDDO-Me. GI injury was assessed by mucosal damage by histopathalogical analysis (FIGS. 3A and 3B) and crypt cell proliferation by BrdU immunohistochemistry staining (FIGS. 3C and 3D).
To analyze the GI injury, villi morphology and proliferation of crypt cells were quantified by immunohistochemistry and BrdU labeling on day 9 post TBI.

[3] = tested on: Nrf2+/+ mice; assay: TBI induced mortality in Nrf2+/+ mice after CDDO-Me treatment; type: in vivo; conditions: for mortality: survival monitored for 30 days, vehicle 100% mortality
Experimental: as §1, §2

[4] = tested on: GCLC, GCLm and NQO1 genes; assay: Expression of Nrf2 regulated antioxidant genes in multiple tissues post TBI by quantitative RT-PCR; type: in vivo, mice; conditions: small intestine, colon, lung, liver, kidney, salivary gland and other organs
Text: FIG. 5 is a table that quantifies Nrf2 regulated antioxidant defenses in multiple tissues of mice treated with CDDO-Me post TBI.

[5] = tested on: hematopoietic stem cells and progenitors cell; assay: TBI induced hematopoietic injury, bone marrow clonogenic assay; type: in vivo, mice; conditions: bone marrow clonogenic assay after TBI, vs vehicle
Experimental: FIG. 4 is a graph quantitating TBI induced HP injury in mice after CDDO-me or vehicle treatment as assessed by bone marrow clonogenic assay.
To assess the protective effect of CDDO-Me on hematopoietic injury, bone marrow was analyzed in a clonogenic assay.

## COC(=O)[C@]12CCC(C)(C)C[C@H]1[C@H]1C(=O)C=C3[C@@]4(C)C=C(C#N)C(=O)C(C)(C)[C@@H]4CC[C@@]3(C)[C@]1(C)CC2 [CDDO-Me]
[1]
  survival following TBI: failed to improve survival
[2]; BrdU immunohistochemistry
  crypt cell proliferation (BrdU staining): significantly mitigated loss of crypt cells; also recorded: marked improvement in crypt cell proliferation
[2]
  mucosal injury (length of villi): significantly mitigated reduction in gastrointestinal villi
[2]; listed as CDDO-me
  mucosal injury (length of villi): markedly ameliorated mucosal injury
[3]; treated 1 hour and 24 hours after TBI, vs vehicle
  TBI induced mortality: markedly inhibited TBI induced mortality
[3]; treated 1 hour post-TBI
  mortality: 0%
[3]; treated 24 hours post-TBI
  mortality: 25%
[4]
  expression of antioxidant genes (GCLC, GCLm, NQO1): markedly upregulated antioxidant genes
[5]
  protection of hematopoietic stem cells and progenitors (granulocyte/macrophage colony forming cells): markedly protected hematopoietic stem cells and progenitors cell
